Where two headings read alike, the source gives them in different places.
Legend:
[1] = system: MDA-MB-435S human melanoma cell; test: BrdU cell proliferation assay (Cell Signaling kit); type: cell-based; conditions: 72 h, read-out: In vitro cell-inhibiting activity IC50 MDA-MB-435S
Protocol: (§1) Experimental method: cell proliferation assay was carried out by BrdU method (BrdU cell proliferation assay kit, Cell Signaling Technology Company).
(§2) Preparation of gradient dilution solutions of test compound: the stock solution containing 10 mM test compound was subjected to 4-fold stepwise dilution with DMSO to prepare solutions containing 2.5 mM, 625 μM, 156 μM, 39 μM, 9.8 μM, and 2.5 μM test compound, respectively. 2 μL DMSO-diluted compound was added to 198 μL culture medium containing 10% FBS to prepare […] test compound, wherein the maximum concentration of the test compound was 100 μM, the concentration of DMSO was 1%, and there were 7 concentration gradients.
MDA-MB-435S medium: L-15+10% FBS+0.01 mg/mL insulin
(§3) (1) Cells grown to 80% confluence (in exponential growth phase) were digested with pancreatin, and centrifuged to collect the cells. MDA-MB-435S and U87MG cells were re-suspended in FBS-free culture medium, counted, and seeded to a 96-well plate; MDA-MB-435S cells were seeded at 3000 cells/well/81 μL; U87MG cells were seeded at 4000 cells/well/81 MCF-7 cells were resuspended in culture medium containing 1% FBS, and counted and seeded to a 96-well plate, at 4000 cell/well/82 μL. The plates were placed in a cell incubator at 37° C. […]
(§4) (9) To each well, stop solution (100 μL) was added, and OD value at 450 nm was measured by ELISA instrument […]

[2] = Pharmacokinetics in nude mouse (IV and PO); type: in vivo; conditions: female, BALB/c nude, plasma; for bioavailability: read-out: F (absolute bioavailability)
Protocol: Test animal: female nude mouse (BALB/c); control agent: 3 mice/administration route at each time point, weight: 22-25 g/mouse; Compound 1: 3 mice/administration route at each time point, weight: 22-25 g/mouse; Compound 6-1: 6 mice/administration route/test compound, weight: 18-26 g/mouse.
Control agent/Compound 1, IV administration group: before administration, 0.083, 0.25, 0.5, 1, 2, 4, 6, 8, 24, and 30 h after administration; PO administration group (10 mg/kg): before administration, 0.167, 0.5, 1, 2, 4, 6, 8, 24, and 30 h after administration.
Compound 1, PO administration group (100 mg/kg): 0.167, 0.5, 1, 2, 4, 6, 8, 24, 30, and 48 h after administration.
Compound 6-1, IV administration group (2.5 mg/kg) and PO administration group (10 mg/kg): 0.083, 0.25, 0.5, 1, 2, 4, 6, 8 and 24 h after administration; Compound 6-1, PO administration group (100 mg/kg): 0.083, 0.25, 0.5, 1, 2, 4, 6, 8, 24, 30, 48 h after administration.
Control agent/Compound 1: 300 μL whole blood was collected from intraocular canthus at each time point, and was centrifuged at 8000 r/min for 6 min in a high speed centrifuge to separate the plasma; the plasma was stored in a refrigerator at −80° C. Compound 6-1: 60 μL whole blood was collected from intraocular canthus at each time point, and was placed in an anticoagulation tube containing anticoagulant agent K2EDTA; the blood sample was centrifuged at 8000 r/min for 6 min to obtain a plasma sample.
The plasma samples of control agent and compound 1 were analyzed by precipitation of protein: to 50 μL plasma, 200 μL internal standard (acetonitrile solution containing 500 ng/mL Warfarin) was added; the resultant mixture was vortexed for 3 min at 1500 r/min, and centrifuged for 5 min at 13000 r/min; to 100 μL supernatant, 400 μL water was added; the resultant mixture was mixed homogeneously under vortexing and analyzed by LC-MS/MS.
The plasma sample of compound 6-1 was analyzed by precipitation of protein: to a suitable amount of plasma, a given volume of internal standard solution was added; the resultant mixture was vortexed and centrifuged; the supernatant was diluted by adding a given volume of water; the resultant mixture was mixed homogeneously under vortexing and analyzed by LC-MS/MS.

[3] = system: U87MG human glioblastoma cell; test: BrdU cell proliferation assay (Cell Signaling kit); type: cell-based; conditions: U-87 MG, 72 h, read-out: In vitro cell-inhibiting activity IC50 U87MG
Protocol: as §1, §2
U87MG medium: MEM+10% FBS
as §3, §4

[4] = system: MCF-7 human breast cancer cell; test: BrdU cell proliferation assay (Cell Signaling kit); type: cell-based; conditions: MCF7, 72 h, read-out: In vitro cell-inhibiting activity IC50 MCF-7
Protocol: as §1, §2
MCF-7 medium: DMEM+10% FBS+0.01 mg/mL insulin
as §3, §4

CDK4/D3 = CDK4/D3 (Homo sapiens, UniProt P11802); test: In vitro enzyme-inhibiting activity, Caliper Mobility Shift method; type: biochemical; conditions: read-out: CDK enzyme-inhibiting activity IC50 CDK4/D3
Protocol: (§5) Measurement of activity for inhibiting CDK4/6 kinase by Caliper Mobility Shift method.
1) Preparation of 1-Fold Buffer for CDK4 Kinase 800 μL stock solution containing 1000 mM HEPES (pH 7.5), and 40 μL stock solution containing 10% Triton X-100, were added to 39160 μL ultra pure water, and the resultant mixture was mixed homogeneously.
(§6) 25 mL stock solution containing 4% Coating Reagent #3 (provided with the 12-sipper chip used in Caliper device), 50 mL stock solution containing 1000 mM HEPES (pH 7.5), 50 mL stock solution containing 0.5 M EDTA, and 0.25 mL stock solution containing 30% Brij-35, were added to 374.75 mL ultra pure water, and the resultant mixture was mixed homogeneously.
7 μL CDK4/D3 enzyme solution, and 9 μL stock solution containing 1M DTT were added to 1784 μL 1-fold CDK4 kinase buffer, and the resultant mixture was mixed homogeneously.
10 μL stock solution containing 100 mM ATP, 45 μL stock solution containing 1M MgCl2, and 45 μL FAM-tagged polypeptide 8, were added to 1700 μL 1-fold CDK4 kinase buffer, and the resultant mixture was mixed homogeneously.
(§7) DMSO solution containing 10 mM test compound was diluted with DMSO to a solution containing 50 μM test compound (which was used as a stock solution).
(§8) 1) 5 μL 5-fold test compound solution and 10 μL 2.5-fold kinase solution were added to the corresponding wells in a 384-well plate, and incubated at room temperature for 10 min.
(§9) 2) To the corresponding wells, 10 μL 2.5-fold polypeptide solution was added to start the enzymatic reaction, and incubation was performed at 28° C. for 5 h.
(§10) To the corresponding wells, 25 μL stop solution was added to stop the reaction.
(§11) The data was read by Caliper device, the inhibition rate was calculated by the following formula, and curve fitting was carried out by GraphPad5.0 software to get IC50 value. Inhibition rate=(maximal value−sample value)/(maximal value−minimal value)×100, wherein, maximal value: positive control without addition of test compound; minimal value: negative control without addition of enzyme.

CDK6/D3 = CDK6/D3 (Homo sapiens, UniProt Q00534); test: as above; type: biochemical; conditions: read-out: CDK enzyme-inhibiting activity IC50 CDK6/D3
Sequence of CDK6/D3 (Q00534 whole entry): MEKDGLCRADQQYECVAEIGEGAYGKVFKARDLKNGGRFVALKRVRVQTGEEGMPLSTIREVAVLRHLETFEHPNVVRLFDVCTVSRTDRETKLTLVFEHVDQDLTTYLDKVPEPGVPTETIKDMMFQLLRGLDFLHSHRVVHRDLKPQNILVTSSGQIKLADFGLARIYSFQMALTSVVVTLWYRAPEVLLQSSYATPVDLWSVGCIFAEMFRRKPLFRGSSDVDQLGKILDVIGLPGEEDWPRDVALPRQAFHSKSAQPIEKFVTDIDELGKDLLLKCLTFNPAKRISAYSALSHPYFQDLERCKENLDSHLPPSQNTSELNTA
Sequence of CDK6/D3 (P30281 whole entry partner): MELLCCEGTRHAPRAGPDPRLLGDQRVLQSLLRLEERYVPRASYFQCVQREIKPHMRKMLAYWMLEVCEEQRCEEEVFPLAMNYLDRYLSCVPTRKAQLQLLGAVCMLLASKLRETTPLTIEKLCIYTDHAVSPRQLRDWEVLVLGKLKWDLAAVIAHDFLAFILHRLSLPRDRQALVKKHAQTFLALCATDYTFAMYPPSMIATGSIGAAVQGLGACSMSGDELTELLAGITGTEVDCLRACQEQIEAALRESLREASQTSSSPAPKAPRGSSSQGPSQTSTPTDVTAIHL
Protocol: as §5
50 mL stock solution containing 1000 mM HEPES (pH 7.5), and 50 μL stock solution containing 30% Brij-35, were added to 949.95 mL ultra pure water, and the resultant mixture was mixed homogeneously.
as §6
18 μL CDK6/D3 enzyme solution, and 14 μL stock solution containing 1M DTT were added to 2768 μL 1-fold CDK6 kinase buffer, and the resultant mixture was mixed homogeneously.
23 μL stock solution containing 100 mM ATP, 75 μL stock solution containing 1M MgCl2, and 75 μL FAM-tagged polypeptide 8, were added to 2827 μL 1-fold CDK6 kinase buffer, and the resultant mixture was mixed homogeneously.
as §7, §8, §9, §10, §11

Sequence of CDK4/D3 (P11802 whole entry): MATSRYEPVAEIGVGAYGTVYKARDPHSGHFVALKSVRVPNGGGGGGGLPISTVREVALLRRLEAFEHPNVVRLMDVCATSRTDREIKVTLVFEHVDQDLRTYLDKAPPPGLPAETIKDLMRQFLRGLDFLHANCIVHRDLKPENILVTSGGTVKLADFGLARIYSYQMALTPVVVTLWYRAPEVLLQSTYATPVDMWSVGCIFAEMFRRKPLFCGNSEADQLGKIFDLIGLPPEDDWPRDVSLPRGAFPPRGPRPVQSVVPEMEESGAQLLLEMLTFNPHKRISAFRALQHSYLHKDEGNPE
Sequence of CDK4/D3 (P30281 whole entry partner): as the sequence (P30281 whole entry partner) above

IC50 [1] [µM]	AUC(0-t) ([2]; IV, 2.5 mg/kg) [ng·h/mL]	clearance ([2]; IV, 2.5 mg/kg) [mL/min/kg]	Vd ([2]; IV, 2.5 mg/kg, read-out: Vss) [L/kg]	AUC(0-t) ([2]; PO, 10 mg/kg) [ng·h/mL]	Cmax ([2]; PO, 10 mg/kg) [ng/mL]	Tmax ([2]; PO, 10 mg/kg) [h]	bioavailability ([2]; PO, 10 mg/kg) [%]	AUC(0-t) ([2]; PO, 200 mg/kg) [ng·h/mL]	Cmax ([2]; PO, 200 mg/kg) [ng/mL]	Tmax ([2]; PO, 200 mg/kg) [h]	bioavailability ([2]; PO, 200 mg/kg) [%]	IC50 [3] [µM]	IC50 [4] [µM]	IC50 (CDK4/D3) [µM]	IC50 (CDK6/D3) [µM]	SMILES
0.07	985	40.2	12.5	1410	300	2	39.3	90900	5370	2	115	0.047	0.083			Cc1nc2c(F)cc(-c3cc(Nc4ncc(CN5C[C@H]6CN(C)C[C@H]6C5)cn4)ncc3F)cc2n1C(C)C [Compound 6-1, N-(5-fluoro-4-(4-fluoro-1-isopropyl-2-methyl-1H-benzo[d]imidazol-6-yl)pyridin-2-yl)-5-(((cis)-5-methylhexahydropyrrolo[3,4-c]pyrrol-2(1H)-yl)methyl)pyrimidin-2-amine]
														0.0026	0.0231	CCN1C2CCC1CN(Cc1cnc(Nc3cc(-c4cc(F)c5nc(C)n(C(C)C)c5c4)c(F)cn3)nc1)C2 [Compound 14, 5-((8-ethyl-3,8-diazabicyclo[3.2.1]octan-3-yl)methyl)-N-(5-fluoro-4-(4-fluoro-1-isopropyl-2-methyl-1H-benzo[d]imidazol-6-yl)pyridin-2-yl)pyrimidin-2-amine]
														0.003	0.0313	CCN1CC2CCC(C1)N2Cc1cnc(Nc2cc(-c3cc(F)c4nc(C)n(C(C)C)c4c3)c(F)cn2)nc1 [Compound 13, 5-((3-ethyl-3,8-diazabicyclo[3.2.1]octan-8-yl)methyl)-N-(5-fluoro-4-(4-fluoro-1-isopropyl-2-methyl-1H-benzo[d]imidazol-6-yl)pyridin-2-yl)pyrimidin-2-amine]

From patent US9949976B2, “Kinase inhibitor and use thereof” (Sihuan Pharmaceutical Holdings Group Ltd., priority 2013, dated 2018)
